# Patent US20250346606A1, “CAMPTOTHECIN COMPOUND, PREPARATION METHOD THEREFOR, AND APPLICATION THEREOF” (SICHUAN KELUN-BIOTECH BIOPHARMACEUTICAL CO., LTD., priority 2021, published 2025)
# Like-named read-outs stand apart in the source and are kept apart here.
# Key:
# NCI-H358 cells = experiment: Inhibitory effect of compounds on NCI-H358 cell proliferation; assay type: cell-based, Human
# Description: (1) Cell plating: First, tumor cells NCI-H358 were cultured in corresponding medium, then digested with trypsin, centrifuged, resuspended, and counted, and the cells were adjusted to an appropriate concentration for plating.
# (§1) Co-incubation of the compound of the present disclosure and tumor cells: after the cells adhered to the wall, the medium was removed, and the diluted bioactive molecule (the compound of the present disclosure) was added to the wells of the above plate, and incubated for 72 h.
# (§2) In vitro cell viability detection: After the incubation, 50 μL of Cell Counting-Lite™ 2.0 reagent (Vazyme/Novazyme) was added to each well, shaken and mixed well in the dark, reacted for 10 minutes, and then the detection was carried out with a microplate reader (manufacturer: BMG, Model: PHERAStar-FS) for reading. The background RLU was obtained by using cell-free medium (with Cell Counting-Lite™), and the vehicle RLU was obtained by using cell-containing medium (with Cell Counting-Lite™). Cell inhibition rate=1−(sample RLU−background RLU)/(solvent RLU−background RLU)×100%. According to the four-parameter model fitting curve, the half maximal inhibitory concentration (IC50) of the compound was calculated, and the detection results were shown in Table 10.
# Jeko-1 cells = experiment: Inhibitory effect of compounds on Jeko-1 cell proliferation; assay type: cell-based, Human; conditions: read-out: IC50, inhibitory activity on Jeko-1 cell proliferation
# Description: (1) Cell plating: First, tumor cells Jeko-1 were cultured in corresponding medium, then digested with trypsin, centrifuged, resuspended, and counted, and the cells were adjusted to an appropriate concentration for plating.
# as §1
# as §2, with “20.” for “10.”
# NCI-N87 cells = experiment: Inhibitory effect of compounds on NCI-N87 cell proliferation; assay type: cell-based, Human
# Description: (1) Cell plating: First, tumor cells NCI-N87 were cultured in corresponding medium, then digested with trypsin, centrifuged, resuspended, and counted, and the cells were adjusted to an appropriate concentration for plating.
# as §1
# as §2, with “12.” for “10.”
# SKOV-3 cells = experiment: Inhibitory effect of compounds on SKOV-3 cell proliferation; assay type: cell-based, Human; conditions: Homo sapiens, SK-OV-3, 72 h, read-out: IC50, inhibitory activity on SKOV-3 cell proliferation
# Description: (1) Cell plating: First, tumor cells SKOV-3 were cultured in corresponding medium, then digested with trypsin, centrifuged, resuspended, and counted, and the cells were adjusted to an appropriate concentration for plating.
# as §1
# as §2, with “8.” for “10.”
# HT29 cells = experiment: Inhibitory effect of compounds on HT29 cell proliferation; assay type: cell-based, Human; conditions: read-out: IC50, inhibitory activity on HT29 cell proliferation
# Description: (1) Cell plating: First, tumor cells HT29 were cultured in corresponding medium, then digested with trypsin, centrifuged, resuspended, and counted, and the cells were adjusted to an appropriate concentration for plating.
# as §1
# as §2, with “2.” for “10.”
# HCC1806 cells = experiment: Inhibitory effect of compounds on HCC1806 cell proliferation; assay type: cell-based, Human
# Description: (1) Cell plating: First, tumor cells HCC1806 were cultured in corresponding medium, then digested with trypsin, centrifuged, resuspended, and counted, and the cells were adjusted to an appropriate concentration for plating.
# as §1
# as §2, with “6.” for “10.”
# MDA-MB-453 cells = experiment: Inhibitory effect of compounds on MDA-MB-453 cell proliferation; assay type: cell-based; conditions: MDA-MB-453 human breast cancer cells, 72 h incubation, Cell Counting-Lite 2.0
# Description: (1) Cell plating: First, tumor cells MDA-MB-453 were cultured in corresponding medium, then digested with trypsin, centrifuged, resuspended, and counted, and the cells were adjusted to an appropriate concentration for plating.
# as §1
# as §2, with “22.” for “10.”
# [1] = NCI-H358 human non-small cell lung cancer cells, 72 h incubation, Cell Counting-Lite 2.0, read-out: IC50, inhibitory activity on NCI-H358 cell proliferation
# [2] = Jeko-1 human mantle cell lymphoma cells, 72 h incubation, Cell Counting-Lite 2.0
# [3] = NCI-N87 human gastric cancer cells, 72 h incubation, Cell Counting-Lite 2.0, read-out: IC50, inhibitory activity on NCI-N87 cell proliferation
# [4] = read-out: IC50, inhibitory activity on NCI-H358 cell proliferation, NCI-H358 human non-small cell lung cancer cells, 72 h incubation, Cell Counting-Lite 2.0
# [5] = read-out: IC50, inhibitory activity on HCC1806 cell proliferation; HCC1806 human breast squamous carcinoma cells, 72 h incubation, Cell Counting-Lite 2.0
# [6] = read-out: IC50, inhibitory activity on NCI-N87 cell proliferation, NCI-N87 human gastric cancer cells, 72 h incubation, Cell Counting-Lite 2.0
# [7] = HCC1806 human breast squamous carcinoma cells, 72 h incubation, Cell Counting-Lite 2.0; read-out: IC50, inhibitory activity on HCC1806 cell proliferation
SMILES,IC50 (NCI-H358 cells; [1]),IC50 (Jeko-1 cells; [2]),IC50 (NCI-N87 cells; [3]),IC50 (MDA-MB-453 cells),IC50 (HCC1806 cells; [7]),other results
C=C[C@H](O)C(=O)N[C@H]1CCc2c(C)c(F)cc3nc4c(c1c23)Cn1c-4cc2c(c1=O)COC(=O)[C@]2(O)CC [Example 2 (1-7-A)],11.4 nM,0.15 nM,2.7 nM,–,–,–
C=C[C@@H](O)C(=O)N[C@H]1CCc2c(C)c(F)cc3nc4c(c1c23)Cn1c-4cc2c(c1=O)COC(=O)[C@]2(O)CC [Example 2 (1-7-B)],51.5 nM,0.66 nM,5.48 nM,–,–,–
"CC[C@@]1(O)C(=O)OCc2c1cc1n(c2=O)Cc2c-1nc1cc3c(cc1c2CCNC1CC1)OCO3 [Example 21 (4-14), (S)-14-(2-(Cyclopropylamino)ethyl)-7-ethyl-7-hydroxy-7H-[1,3]dioxolano[4,5-g]pyrano[3′,4′:6,7]indolizino[1,2-b]quinolin-8,11 (10H,13H)-dione]",–,–,–,–,–,"IC50 (NCI-H358 cells; Homo sapiens, NCI-H358, 72 h, read-out: IC50, inhibitory activity on NCI-H358 cell proliferation, NCI-H358 human non-small cell lung cancer cells, 72 h incubation, Cell Counting-Lite 2.0): 12 nM; IC50 (Jeko-1 cells; Homo sapiens, JeKo-1, 72 h): 0.34 nM; IC50 (SKOV-3 cells): 2.16 nM; IC50 (HT29 cells; Homo sapiens, HT-29, 72 h): 0.56 nM"
"CC[C@@]1(O)C(=O)OCc2c1cc1n(c2=O)Cc2c-1nc1cc(F)c(Cl)c3c1c2[C@H](NC(=O)CO)CC3 [Example 9 (3-4-B), N-((1R,9S)-4-Chloro-9-ethyl-5-fluoro-9-hydroxy-10,13-dioxo-2,3,9,10,13,15-hexahydro-1H, 12H-benzo[de]pyrano[3′,4:6,7]indolizino[1,2-b]quinolin-1-yl)-2-hydroxyacetamide]",–,0.15 nM,6.51 nM,–,–,"IC50 (HT29 cells; HT29 human colon cancer cells, 72 h incubation, Cell Counting-Lite 2.0): 4.98 nM"
"CC[C@@]1(O)C(=O)OCc2c1cc1n(c2=O)Cc2c-1nc1cc(F)c(Cl)c3c1c2C(NC(=O)C(O)C1CC1)CC3 (single isomer, unassigned) [Example 16 (3-12-B)]",–,–,–,4.32 nM,–,IC50 (NCI-H358 cells; [4]): 19.8 nM; IC50 (HCC1806 cells; [5]): 1.76 nM; IC50 (NCI-N87 cells; [6]): 3.45 nM
"CC[C@@]1(O)C(=O)OCc2c1cc1n(c2=O)Cc2c-1nc1cc(Cl)c(C)c3c1c2[C@@H](NC[C@@H](C)O)CC3 [Example 24 (2-27-A), (2R)—N-((1S,9S)-5-Chloro-9-ethyl-9-hydroxy-4-methyl-10,13-dioxo-2,3,9,10,13,15-hexahydro-1H,12H-benzo[de]pyrano[3′,4:6,7]indolizino[1,2-b]quinolin-1-yl)-2-hydroxypropylamine]",56.5 nM,–,8.32 nM,11.8 nM,4.55 nM,–
"CC[C@@]1(O)C(=O)OCc2c1cc1n(c2=O)Cc2c-1nc1cc(F)c(C3CC3)c3c1c2[C@H](NC(=O)CO)CC3 [Example 19 (5-22-B), N-((1R,9S)-4-cyclopropyl-9-ethyl-5-fluoro-9-hydroxy-10,13-dioxo-1,2,3,9,10,12,13,15-tetrahydrobenzo[de]pyrano[3′,4′:6,7]indolizino[1,2-b]quinolin-1-yl)-2-hydroxyacetamide]",61.4 nM,–,5.51 nM,5.67 nM,3.71 nM,–
"CC[C@@]1(O)C(=O)OCc2c1cc1n(c2=O)Cc2c-1nc1cc(F)c(C)c3c1c2[C@@H](CN)CC3 (single isomer, unassigned) [Example 13 (5-7-A)]",–,–,–,–,–,"IC50 (Jeko-1 cells; Homo sapiens, JeKo-1, 72 h): 0.16 nM; IC50 (NCI-N87 cells; Homo sapiens, NCI-N87, 72 h, read-out: IC50, inhibitory activity on NCI-N87 cell proliferation, NCI-N87 human gastric cancer cells, 72 h incubation, Cell Counting-Lite 2.0): 6.03 nM; IC50 (HT29 cells; Homo sapiens, HT-29, 72 h): 3.13 nM"
"CC[C@@]1(O)C(=O)OCc2c1cc1n(c2=O)Cc2c-1nc1cc(F)c(C3CC3)c3c1c2[C@@H](NC(=O)CO)CC3 [Example 19 (5-22-A), N-((1S,9S)-4-cyclopropyl-9-ethyl-5-fluoro-9-hydroxy-10,13-dioxo-1,2,3,9,10,12,13,15-tetrahydrobenzo[de]pyrano[3′,4′:6,7]indolizino[1,2-b]quinolin-1-yl)-2-hydroxyacetamide]",29.9 nM,–,3.35 nM,7.34 nM,2.57 nM,–
"CC[C@@]1(O)C(=O)OCc2c1cc1n(c2=O)Cc2c-1nc1cc(F)c(Cl)c3c1c2C(NC(=O)C(O)C1CC1)CC3 (single isomer, unassigned) [Example 16 (3-12-C)]",–,–,–,5.52 nM,–,IC50 (NCI-H358 cells; [4]): 28.3 nM; IC50 (HCC1806 cells; [5]): 1.91 nM; IC50 (NCI-N87 cells; [6]): 3.99 nM
